Results: patent publication US20070128719A1, “ISOLATION AND EXPANSION OF ANIMAL CELLS IN CELL CULTURES” (TissueTech, Inc., priority 2003, published 2007)

Assays:
[1] = tested on: human limbal explants; assay: Epithelial outgrowth from human limbal explants cultured on intact AM with kinase inhibitors; assay type: cell-based; details: for epithelial outgrowth: limbal explant on intact AM in SHEM, vs DMSO control
Procedure: Human AM was provided by Bio-Tissue (Miami, Fla.) and stored at −80° C. before use. AM was devitalized by freezing and thawing and washed three times with HBSS before being fastened onto a 30 mm culture insert, Millicel-CM (which generated an insert with 23 mm diameter covered by AM), and placed in a 6 well plate (Meller, D. and Tseng S C G, Invest Ophthalmol Vis Sci., 40:878-86, 1999).
After removal of excessive sclera, iris, corneal endothelium, conjunctiva, and Tenon's capsule, the limbal ring was separated by a 7.5 mm trephine from donor human corneas. Each limbal ring was rinsed 3 times with SHEM media. The limbal ring was then exposed for 10 min to 1.2 units/ml Dispase II in Mg^2+- and Ca^2+-free HBSS at 37° C. under 95% humidity and 5% CO2. Following three rinses with SHEM medium, each limbal ring was subdivided into two halves and each half further subdivided into 6 pieces of 1×1.5×2.5 mm explants. To eliminate variations of age, sex, and race, explants from the corresponding position of the same donor cornea were selected for the control and the experimental group, respectively. An explant was placed on the center of intact AM or plastic with the epithelial side facing up and cultured in SHEM medium. The experimental group was added with the inhibitor of desired concentration, while the control group was added with the same concentration of DMSO as the vehicle which was used to dissolve each inhibitor. The culture was maintained at 37° C. under 95% humidity and 5% CO2, the medium was changed every other day, and their outgrowth was monitored daily for 17 days using an inverted phase microscope (Nikon, Japan). The outgrowth area was digitized every other day by Adobe Photoshop 5.5 and analyzed by NIH ImageJ 1.30v (NIH, Bethesda, Md.).
All experiments were performed at least in triplicate. Summary data were reported as means±S.D., compiled and analyzed by MicroSoft Excel™ (MicroSoft, Redmont, Wash.). The mean and standard deviation were calculated for each group using the appropriate version of Student's unpaired t-test. Test results were reported as two-tailed p values, where p<0.05 was considered statistically significant.

[2] = tested on: TGF-β1 promoter; assay: TGF-β promoter assay in human limbal epithelial cells; assay type: cell-based
Procedure: Human corneal fibroblasts were transiently transfected with the aforementioned adenoviral promoter constructs. […] 2, 2005 and entitled “Suppression Of TGF-B Activity By Amniotic Membrane Extracts, Compositions Thereof, And Methods For The Prevention And Suppression Of Scarring And Inflammation” in a dose-dependent manner (from 0.04 to 125 μg/ml) in human corneal fibroblasts. […] The suppressive effect of both AME and HA alone was lost after pretreatment with HAse. […] A similar result was obtained for TGF-βRII promoter activity.

[3] = tested on: murine limbal epithelial cells; assay: Clonal expansion of single cell expanded murine limbal epithelial cells in KSFM; assay type: cell-based, mouse; details: 10 pg/ml and 150 pg/ml; 50 cells/cm^2 in KSFM, 6 days
Procedure: Single cell expanded murine limbal epithelial cells were seeded at 50 cells/cm^2 in KSFM and cultured for 6 days. […] Cells seeded at 20,000 cells/cm^2 in KSFM became enlarged.

[4] = tested on: murine limbal epithelial progenitor cells; assay: α-SMA expression in clonal cultures of murine limbal epithelial progenitor cells; assay type: cell-based, mouse; details: 5 ng/ml in KSFM; low seeding density (500 cells/cm^2)
Procedure: In clonal cultures of murine limbal epithelial progenitor cells, expression of α-SMA, a marker for myofibroblasts, was not detected when clonally expanded murine limbal epithelial cells were seeded at low density (500 cells/cm^2), but increasingly detected when cells were seeded at the intermediate (5,000 cells/cm^2) and high seeding densities (50,000 cells/cm^2). Cells expressing α-SMA were larger and squamous and could also express p63 in the nucleus. […] Under these conditions, expression of S100A shifted from cytoplasm to the nucleus, signaling of Smad 4 moved from cytoplasm to the nucleus, expression of […] moved from the intercellular junction to the cytoplasm and the perinucleus, the signaling of β-catenin moved from the intercellular junctions to the nucleus), and the signaling of LEF-1 also moved from the cytoplasm to the nucleus.

[5] = tested on: Smad-mediated TGF-β signaling; assay: Immunolocalization of Smad 2 and Smad 4 in murine keratocytes; assay type: cell-based, mouse; details: 10 ng/ml, cells on plastic in DMEM/ITS (16% without TGF-β1)
Procedure: Isolation and Culture of Keratocytes on Plastic or AM—Albino mice eyes were enucleated by forceps, washed profusely in PBS, and incubated in DMEM containing 20 mM HEPES, 15 mg/ml dispase II (Roche, Indianapolis, Ind.) and 100 mM sorbitol at 4° C. for 18 h (see Espana et al., Invest Ophthalmol Vis Sci. 44:4275-4281, 2003; Kawakita et al., Invest Ophthalmol Vis Sci. 45:3507-3512, 2004). The entire corneal epithelium loosened by this treatment was subsequently removed by vigorous shaking. Under a dissecting microscope, the corneal stroma was separated from the sclera at the corneoscleral limbus by pressing down the limbus with a 27 G needle while the eye was held with a forcep. Isolated corneal stromas were incubated overnight at 37° C. in DMEM containing 1.25 mg/ml collagenase A (Roche, Indianapolis, Ind.), 50 μg/ml gentamicin and 20 mM HEPES in a non-coated plastic dish until the tissue became “smeared” onto the dish bottom. Digested corneal stromas in collagenase A were centrifuged at 800×g for 5 min. Keratocytes were resuspended in DMEM containing 20 mM HEPES, ITS (5 μg/ml insulin, 5 μg/ml transferrin and 5 ng/ml sodium selenite), 50 μg/ml gentamicin and 1.25 μg/ml amphotericin B with or without 10% FBS. […]

[6] = tested on: murine keratocytes; assay: α-SMA expression (myofibroblast differentiation) of murine keratocytes; assay type: cell-based, mouse; details: cells on plastic; 5 days of continuous stimulation with TGF-β1
Procedure: TGF-β1 Challenge and Neutralizing Antibody—To assess whether TGF-β1 affected the cell phenotype, triggered Smad 2 and Smad 4 nuclear translocation, and differentiated keratocytes into myofibroblasts, 10 ng/ml human recombinant TGF-β1 (Sigma, St Louis, Mo.) was added to serum-free DMEM/ITS cells for 3 h or 5 days when cells expanded on AM were passed to 24 well plastic dishes and AM inserts, respectively. In addition, primary keratocytes were seeded and cultured on AM or plastic for 3 days in DMEM/ITS or DMEM/10% FBS for 24 h, of which the latter was treated with or without 10 μg of a monoclonal antibody neutralizing TGF-β1, -β2, and -β3 (R&D Systems, Minneapolis, Minn.) per ml of DMEM medium for 48 h before adenoviral transfection.
To confirm that TGF-β was indeed responsible for Smad signaling in DMEM/10% FBS, a neutralizing antibody to three TGF-β isoforms was added to the plastic cultures. Nuclear translocation of Smad 4 was prevented. […] Thirty-nine percent of cells cultured on plastic differentiated into α-SMA-expressing myofibroblasts, but no cell on AM expressed α-SMA even after 5 days of continuous stimulation with TGF-β1.

[7] = tested on: Smad2; assay: Nuclear accumulation of Smad2 in rhesus monkey keratocytes; assay type: cell-based; details: 4 ng/ml added in KSFM for 48 hours (19.3±5.1% in KSFM alone)
Excerpt: Three rhesus monkeys (Macaca Mulatta), 4 years old, and rabbit and mouse cornea were obtained from an approved tissue-sharing program after euthanasia. An entire anterior corneoscleral segment was removed from the globe by cutting near the limbus with Wescott's scissors. A central cornea was obtained with an 8.0 mm Barron's trephine and immediately transferred to KSFM medium (cat# 17005-042, GIBCO Invitrogen corporation, Carlsbad, Calif.). After removing Descemet's membrane and the corneal endothelium, the corneal epithelium was removed by dispase digestion for 16 h at 4° C. and the remaining corneal stroma was incubated at 37° C. for 16 h in 2.5 ml of DMEM containing 1 mg/ml collagenase A, 20 mM HEPES, 50 μg/ml gentamicin and 1.25 μg/ml amphotericin in a plastic dish. Afterwards, corneal stromal cells were resuspended in 1 ml of KSFM, centrifuged to remove residual matrices, resuspended in KSFM, and seeded on plastic dishes in KSFM or DMEM containing insulin, transferrin, and selenium supplement (DMEM/ITSG) (cat# 41400-045, GIBCO, Carlsbad, Calif.) or 10% FBS (DMEM/10% FBS).
When the primary culture on plastic reached 80% confluence, cells were rendered into single cells by incubation in BSS containing 0.25% trypsin/1 mM EDTA at 37° C. for 1 to 5 minutes, and the enzymatic reaction was stopped by adding soybean-trypsin inhibitor. […]

[8] = tested on: Akt; assay: Western blot of Akt phosphorylation in limbal epithelial cells expanded on intact AM; assay type: cell-based, human
[9] = tested on: FKHRL1; assay: Western blot of FKHRL1 phosphorylation in limbal epithelial cells expanded on intact AM; assay type: cell-based, human
[10] = tested on: p44/42 MAPK; assay: Western blot of p44/42 MAPK phosphorylation in limbal epithelial cells expanded on intact AM; assay type: cell-based, human
[11] = tested on: p44/42 MAPK; details: 10 μM; cited from earlier work
[12] = after 17 days of treatment at 50 μM
[13] = after 17 days of treatment at 10 μM

O=c1cc(N2CCOCC2)oc2c(-c3ccccc3)cccc12 [LY294002]
epithelial outgrowth ([1]; 5 μM, up to 17 days): not significantly inhibited
epithelial outgrowth ([1]; 10 μM, up to 17 days): not significantly inhibited
time to re-initiation of outgrowth after switch to fresh medium [1, 12]: 2 days
time to reach ~80% confluence after removal of inhibitor [1, 12]: 30 days

hyaluronic acid [HA]
suppressive effect on TGF-β1 promoter activity after pretreatment with HAse [2]: lost

TGF-β1: human recombinant TGF-β1 (Sigma)
clonal expansion [3]: dose-dependently suppressed
α-SMA expression [4]: upregulated
cells with nuclear localization of Smad 4 ([5]; 3 h): 67%
cells with nuclear localization of Smad 4 ([5]; 5 days): 85%
cells differentiated into α-SMA-expressing myofibroblasts [6]: Thirty-nine
percentage of nuclear accumulation of Smad2 [7]: 34.7±4.9%

N#CC(=C(/N)Sc1ccccc1N)/C(C#N)=C(\N)Sc1ccccc1N [U0126]
day at which epithelial outgrowth was noted / started ([1]; 10 μM): 8 days
average outgrowth area at day 17 ([1]; 10 μM, day 17): 17.0±3.0 mm^2
epithelial outgrowth ([1]; 10 μM, up to 17 days): almost halted
time to re-initiation of outgrowth after switch to fresh medium [1, 13]: 2 days
time to reach ~80% confluence after removal of inhibitor [1, 13]: 25 days
phosphorylation of Akt at Ser473 ([8]; 10 μM): decreased
phosphorylation of Akt at Thr308 ([8]; 10 μM): eliminated
phosphorylation of FKHRL1 at Thr32 ([9]; 10 μM): decreased
phosphorylation of p44/42 MAPK (Thr202 and Tyr204) ([10]; 10 μM): abolished
p44/42 MAPK phosphorylation in many cells [11]: completely inhibited

CCOC(=O)c1ccc2[nH]c3c(OC)c4[nH]c5ccc(C(=O)OCC)cc5c4cc3c2c1 [SR13668]
reduction of the outgrowth rate ([1]; 10 μM, from day 5 to day 11): 50%
reduction of the outgrowth rate ([1]; 10 μM, from day 11 on): 60%
epithelial outgrowth ([1]; 50 μM): completely inhibited
time to re-initiation of outgrowth after switch to fresh medium [1, 12]: 2 days
time to reach ~80% confluence after removal of inhibitor [1, 12]: 30 days
phosphorylation of Akt at Thr308 and Ser473 ([8]; 50 μM): abolished
Thr32 phosphorylation of FKHRL1 ([9]; 50 μM): abolished
p44/42 MAPK phosphorylation ([10]; 50 μM): did not change
